Results published in ChEMBL document CHEMBL1201862, “PubChem BioAssay data set” (2004).
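These data come from cells grown in 96-well plates and exposed to compound for 48 hours at five concentrations. At the GI50, growth is halved.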 Calls of active or inactive are those of the source. No stated cut-off is given here; in the data, active = GI50 up to about 1.1 µM and inactive = higher. Where a SMILES comes first, the peptide text is derived from it. [ ]: non-standard residue; d: D form. The star is where a group is joined. ξ: configuration not given here. NMeF = CN[CH](Cc1ccccc1)C(=O)O; ξNMe2Val = CC(C)C(C(=O)*)N(C)C; NMeV = CN[CH](C(=O)O)C(C)C; OtBu = CC(C)(C)O*

Tests used:
Assay in all cases: NCI tumour cell line growth inhibition, 48 h
DLD-1 = system: DLD-1
DMS-114 = system: DMS-114
HOP-18 = system: HOP-18
KM-20L2 = system: KM-20L2
LXFL 529 = system: LXFL 529
M19-MEL = system: M19-MEL
RXF 631 = system: RXF 631
SNB-78 = system: SNB-78
XF498 = system: XF498

Measured: GI50

Oc1nnc(CNc2ccc(Cl)cc2Cl)c2ccccc12
inactive: DLD-1 21.2 µM | DMS-114 13.9 µM | HOP-18 23.1 µM | KM-20L2 25.6 µM | LXFL 529 17.1 µM | M19-MEL 33 µM | RXF 631 > 100 µM | SNB-78 62.7 µM

CCOC(=O)C1(C(=O)OCC)CC=C(C)CC12C(=O)Nc1ccccc12 (stereo not drawn)
inactive: DLD-1 > 100 µM | DMS-114 > 100 µM | HOP-18 > 100 µM | KM-20L2 > 100 µM | LXFL 529 > 100 µM | M19-MEL > 100 µM | XF498 > 100 µM

C[C@]12CC(C=O)C(=O)C(O)=C1CC[C@@H]1C2CC[C@@]2(C)C1CC[C@]2(C)O (stereo partly drawn)
inactive: DLD-1 8.55 µM | DMS-114 16.5 µM | KM-20L2 22 µM | LXFL 529 16.6 µM | M19-MEL 20.1 µM | RXF 631 25.6 µM | SNB-78 16.5 µM | XF498 18.2 µM

COC(=O)C12C3C4C1C1C2C3C41I (stereo not drawn)
inactive: DLD-1 > 100 µM | DMS-114 > 100 µM | HOP-18 > 100 µM | KM-20L2 > 100 µM | LXFL 529 > 100 µM | M19-MEL > 100 µM | RXF 631 > 100 µM | SNB-78 > 100 µM | XF498 > 100 µM

NC(=O)N/N=C(\CC1OC(=O)c2ccccc21)c1ccc([N+](=O)[O-])cc1 (stereo not drawn)
inactive: DLD-1 22.4 µM | KM-20L2 29.2 µM | LXFL 529 27.9 µM | M19-MEL 26.5 µM | XF498 26.9 µM

CC1=CC2CCC1(C)C/C2=C(/C)OC=O (stereo not drawn)
inactive: DLD-1 > 100 µM | DMS-114 > 100 µM | HOP-18 > 100 µM | KM-20L2 > 100 µM | LXFL 529 > 100 µM | M19-MEL > 100 µM | SNB-78 > 100 µM | XF498 > 100 µM

CNC(=O)NCCN1N=C(C)/C(=C\c2ccccc2)CC1=O
inactive: DLD-1 > 100 µM | LXFL 529 > 100 µM | M19-MEL > 100 µM | RXF 631 > 100 µM | SNB-78 > 100 µM | XF498 > 100 µM

C1CCC(N=C2N(C3CCCCC3)C(=NC3CCCCC3)N2C2CCCCC2)CC1
inactive: DLD-1 > 100 µM | DMS-114 > 100 µM | HOP-18 > 100 µM | KM-20L2 > 100 µM | LXFL 529 > 100 µM | M19-MEL > 100 µM | XF498 > 100 µM

CCn1c(=O)c2ccccc2n2c(=O)c3cc4ccccc4cc3nc12
inactive: DLD-1 > 100 µM | DMS-114 > 100 µM | KM-20L2 > 100 µM | LXFL 529 > 100 µM | M19-MEL > 100 µM | SNB-78 39.8 µM | XF498 15.8 µM

O=c1c2ccccc2nc(-c2ccccc2)n1NCC1(O)OCC(O)C(O)C1O (stereo not drawn)
inactive: DLD-1 > 100 µM | DMS-114 > 100 µM | HOP-18 > 100 µM | KM-20L2 > 100 µM | LXFL 529 > 100 µM | M19-MEL 49.8 µM | SNB-78 > 100 µM

Cc1nc(N)nc(CCC(=O)Nc2cccc(C(F)(F)F)c2)c1-c1ccc(Cl)cc1
inactive: DLD-1 > 100 µM | DMS-114 > 100 µM | HOP-18 > 100 µM | KM-20L2 > 100 µM | LXFL 529 > 100 µM | M19-MEL > 100 µM | RXF 631 > 100 µM | SNB-78 > 100 µM | XF498 > 100 µM

CN(C)/C=N\c1ccn(CCO)c(=O)n1
inactive: DLD-1 > 100 µM | DMS-114 > 100 µM | HOP-18 > 100 µM | KM-20L2 > 100 µM | LXFL 529 > 100 µM | M19-MEL > 100 µM | RXF 631 > 100 µM | SNB-78 > 100 µM

CC(=O)NC1=C(NCC(C)C)C(=O)c2ccccc2C1=O
inactive: DLD-1 19 µM | DMS-114 14.7 µM | HOP-18 12.8 µM | KM-20L2 21.2 µM | LXFL 529 16.1 µM | M19-MEL 18.7 µM | SNB-78 31.1 µM | XF498 14 µM

COC(=O)C1Cc2c(n(Cc3ccccc3)c3ccccc23)C(CCC(=O)O)N1C(C)C (stereo not drawn)
inactive: DLD-1 > 100 µM | DMS-114 > 100 µM | HOP-18 > 100 µM | KM-20L2 > 100 µM | LXFL 529 > 100 µM | M19-MEL > 100 µM | RXF 631 > 100 µM | SNB-78 > 100 µM

CCCCCCCCCCC(O)[C@H]1CCC(C2CC[C@H]([C@H](O)CCCCCCCCCCC(O)CC3=CC(C)OC3=O)O2)O1 (stereo partly drawn)
inactive: DLD-1 3.67 µM | KM-20L2 3.33 µM | LXFL 529 2.54 µM | M19-MEL 2.22 µM | RXF 631 2.01 µM | SNB-78 2.32 µM
active: DMS-114 < 0.01 µM

Cc1ccc(S(=O)(=O)N2CCCCC2CCO)cc1 (stereo not drawn)
inactive: DLD-1 > 100 µM | DMS-114 > 100 µM | HOP-18 > 100 µM | KM-20L2 > 100 µM | LXFL 529 > 100 µM | M19-MEL > 100 µM | SNB-78 > 100 µM

O=C(Nc1c(O)[nH]c(=S)[nH]c1=O)c1ccc2ccccc2n1
inactive: DLD-1 > 100 µM | DMS-114 > 100 µM | HOP-18 > 100 µM | KM-20L2 > 100 µM | LXFL 529 > 100 µM | M19-MEL > 100 µM | RXF 631 > 100 µM | SNB-78 > 100 µM

CCC(Oc1ccc(OC)c2c1C(=O)CCC2)C(=O)O (stereo not drawn)
inactive: DLD-1 > 100 µM | DMS-114 > 100 µM | LXFL 529 > 100 µM | M19-MEL > 100 µM | SNB-78 > 100 µM | XF498 > 100 µM

ClC1c2ccccc2C2(c3ccccc3)OOC1(c1ccccc1)O2 (stereo not drawn)
inactive: KM-20L2 1.68 µM | SNB-78 1.45 µM
active: DMS-114 0.267 µM

NCCCSCC(=O)O
inactive: DMS-114 > 100 µM | KM-20L2 > 100 µM | LXFL 529 > 100 µM | M19-MEL > 100 µM | SNB-78 > 100 µM

CC[C@]12C=CCN3CCC4(c5cc([C@@]6(C(=O)OC)CC7CN(CCc8c6[nH]c6ccccc86)C[C@@H]6CCC[C@H]76)c(OC)cc5N(C)C4[C@](O)(C(=O)OC)C1OC(C)=O)C32 (stereo partly drawn)
active: DLD-1 0.494 µM | DMS-114 0.225 µM | KM-20L2 0.126 µM | LXFL 529 0.257 µM | M19-MEL 0.267 µM | SNB-78 0.237 µM

O=C1C2[C@@H](C(=O)N1c1ccc(Br)cc1)C13C(=CC2([N+](=O)[O-])[C@@H]2C(=O)N(c4ccc(Br)cc4)C(=O)[C@@H]21)c1ccccc1N3c1ccccc1 (stereo partly drawn)
inactive: DLD-1 > 100 µM | DMS-114 > 100 µM | HOP-18 > 100 µM | M19-MEL > 100 µM | RXF 631 > 100 µM | SNB-78 > 100 µM | XF498 39.3 µM

CC[C@H]1CNC(=O)CC1CC(=O)OC (stereo partly drawn)
inactive: DLD-1 > 100 µM | DMS-114 > 100 µM | RXF 631 > 100 µM | SNB-78 > 100 µM

CC(C)C(C(=O)N(C)C(Cc1ccccc1)C(=O)N(C)C(C(=O)N(C)C(C(=O)N1CCCC1C(=O)OC(C)(C)C)C(C)C)C(C)C)N(C)C (stereo not drawn) (ξNMe2Val-[NMeF][NMeV][NMeV]P-OtBu; configuration not given here)
inactive: DMS-114 31.7 µM | KM-20L2 20.8 µM | LXFL 529 31.8 µM | M19-MEL 78.3 µM | XF498 30.8 µM
